From patent US9447086B2, “6-amino acid heteroaryldihydropyrimidines for the treatment and prophylaxis of hepatitis B virus infection” (priority 2012, dated 2016)
In brackets after ≈: the same amount, converted by molar mass.

Assays:
[1] = Metabolic stability study in human microsome; format: in vitro ADME
Description: Human Microsomes were preincubated with test compound for 10 min at 37° C. in 100 mM phosphate buffer, pH 7.4. The reactions were initiated by adding NADPH or NADPH regenerating system to give a final incubation volume of 400 μL. For NADPH system, the final incubations contained 1 μM test compound, 0.5 mg/mL liver microsomal protein, 1 mM NADPH in 100 mM phosphate buffer, pH 7.4. For the NADPH regenerating system, the final incubations contained 1 μM test compound, 0.5 mg/mL liver microsomal protein, 3 mM glucose 6-phosphate, 1 mM NADP, 3 mM MgCl2 and 0.05 mg/mL glucose 6-phosphate dehydrogenase in 100 mM phosphate buffer, pH 7.4. After incubation times of 0, 3, 6, 9, 15 and 30 minutes at 37° C., 50 μL samples was removed and transferred to 150 μL methanol solution which was maintained at 4° C. containing 2 μM tolbutamide (internal standard) to terminating the reaction. Following precipitation and centrifugation, the amount of compound remaining in the samples were determined by LC-MS/MS. Controls of no NADPH or NADPH regenerating system at zero and 30 min were also prepared and analyzed.

[2] = Lyophilisation solubility assay (Lysa); format: physicochemical; conditions: phosphate buffer, pH 6.5, aqueous buffer, thermodynamic from solid
Description: The aqueous solubility is an important physico-chemical property that plays a significant role in various physical and biological processes. It is desirable to have good solubility which enables good permeability and gastric and intestinal absorption, linear dose proportionality, less PK variability, and easy formulation for PD/PK studies. […] Lyophilisation solubility assay (Lysa) is a well adopted high throughput assay to measure compound solubility in industry.
Samples are prepared in duplicate from 10 mM DMSO stock solutions. After evaporation of DMSO with a centrifugal vacuum evaporator, the residue is solved in 0.05 M phosphate buffer (pH 6.5), stirred for one hour and shaken for two hours. After one night, the solutions is filtered using a microtiter filter plate and the filtrate and its 1/10 dilution are then analyzed by direct UV measurement or by HPLC-UV. […] The results are in μg/mL.

[3] = test system: HBV; test: Anti-HBV activity in vitro in HepG2.2.15 cells (extracellular HBV DNA by qPCR); format: cell-based, Hepatitis B virus; conditions: Hepatitis B virus; HepG2.2.15 cells; in-house data; read-out: EC50
Source text: HepG2.2.15 and HepDE19 are stably-transfected cell lines containing the HBV genome. Both cell lines are derived from the hepatoblastoma cell line Hep G2 (American Type Culture Collection, ATCC® HB-8065™) by the published procedures described in references: MA Selles et al. Proc. Natl. Acad. Sci. USA 1987, 84, 1005-1009 and H Guo et al. Journal of Virology 2007, 81, 12472-12484, respectively. Both cell lines were maintained in Dulbecco's modified Eagle's medium (DMEM)-F12 medium supplemented with 10% fetal bovine serum, 100 U/mL penicillin, 100 μg/mL streptomycin, and 0.5 mg/mL of G418.
While HepG2.2.15 cells constitutively support HBV replication and production of virus particles, HepDE19 cells are inducible by tetracycline. Addition of 1 μg/mL tetracycline in culture medium suppresses HBV replication in HepDE19 cells, whereas switching to tetracycline-free medium resumes this process.
HepG2.2.15 cells were seeded into 96-well plates (3×10^4 cells in 100 μl media per well) and incubated overnight at 37° C. The test compounds were serially half-log diluted in DMSO, then diluted 100 times in culture media. 100 μL diluted compounds were added into the plates to reach 0.5% final concentration of DMSO in every well. Five days after compound treatment, culture supernatant was collected for further analysis.
For quantitative PCR detection of extracellular HBV DNA, 100 μL culture supernatant was collected and processed in MagNA Pure 96 Nucleic Acid Purification System (Roche Applied Science) for viral DNA extraction. The extracted samples were subjected to HBV DNA quantification by qPCR.
The compounds of the present invention were tested for their capacity to inhibit a HBV activity and activation as described herein.

Structure (SMILES) | Human Hepatic Clearance [1] [mL/min/kg] | solubility thermodynamic [2] [µg/mL] | EC50 [3] [µM]
COC(=O)C1=C(CN2CC(F)(F)C[C@H]2C(=O)O)NC(c2nccs2)=N[C@H]1c1cc(F)c(F)cc1Cl [Example 18, (R)-6-((S)-2-Carboxy-4,4-difluoro-pyrrolidin-1-ylmethyl)-4-(2-chloro-4,5-difluoro-phenyl)-2-thiazol-2-yl-1,4-dihydro-pyrimidine-5-carboxylic acid methyl ester] | 3.38 | > 659 | 
COC(=O)C1=C(CN2CC(F)(F)C[C@H]2C(=O)O)NC(c2nc(C)cn2C)=NC1c1ccc(F)cc1Cl (stereo partly drawn) [Example 20, 6-((S)-2-Carboxy-4,4-difluoro-pyrrolidin-1-ylmethyl)-4-(2-chloro-4-fluoro-phenyl)-2-(1,4-dimethyl-1H-imidazol-2-yl)-1,4-dihydro-pyrimidine-5-carboxylic acid methyl ester] | 10.74 | 683 (≈ 1300 µM) | 
COC(=O)C1=C(CN2CCOC[C@H]2C(=O)O)NC(c2nccs2)=N[C@H]1c1cc(F)c(F)cc1Cl [Example 21, (S)-4-[(R)-6-(2-Chloro-4,5-difluoro-phenyl)-5-methoxycarbonyl-2-thiazol-2-yl-3,6-dihydro-pyrimidin-4-ylmethyl]-morpholine-3-carboxylic acid] | 3.08 | 828 (≈ 1610 µM) | 
COC(=O)C1=C(CN2CC(F)(F)C[C@H]2C(=O)O)NC(c2ncccc2F)=N[C@H]1c1ccc(F)cc1Cl [Example 22, (R)-6-((S)-2-Carboxy-4,4-difluoro-pyrrolidin-1-ylmethyl)-4-(2-chloro-4-fluoro-phenyl)-2-(3-fluoro-pyridin-2-yl)-1,4-dihydro-pyrimidine-5-carboxylic acid methyl ester] | 4.82 | 630 (≈ 1200 µM) | 
CCOC(=O)C1=C(CN2CC(F)(F)C[C@H]2C(=O)O)NC(c2nccs2)=NC1c1ccc(F)cc1Cl (stereo partly drawn) [Example 26, 6-((S)-2-Carboxy-4,4-difluoro-pyrrolidin-1-ylmethyl)-4-(2-chloro-4-fluoro-phenyl)-2-thiazol-2-yl-1,4-dihydro-pyrimidine-5-carboxylic acid ethyl ester] | 10.02 | 668 (≈ 1260 µM) | 
COC(=O)C1=C(CN2CC(F)(F)C[C@H]2C(=O)O)NC(c2nccs2)=N[C@H]1c1ccc(C#N)cc1Cl [Example 30, (R)-6-((S)-2-Carboxy-4,4-difluoro-pyrrolidin-1-ylmethyl)-4-(2-chloro-4-cyano-phenyl)-2-thiazol-2-yl-1,4-dihydro-pyrimidine-5-carboxylic acid methyl ester] | 6.56 | 667 (≈ 1280 µM) | 
COC(=O)C1=C(CN2CC(F)(F)C[C@H]2C(=O)O)NC(c2ccc(F)cc2F)=N[C@H]1c1ccc(F)cc1Cl [Example 33, (R)-6-((S)-2-Carboxy-4,4-difluoro-pyrrolidin-1-ylmethyl)-4-(2-chloro-4-fluoro-phenyl)-2-(2,4-difluoro-phenyl)-1,4-dihydro-pyrimidine-5-carboxylic acid methyl ester] | 4.15 |  | 0.023
CCOC(=O)C1=C(CN2CCOC[C@H]2C(=O)O)NC(c2cccc(C)n2)=N[C@H]1c1ccc(F)cc1Cl [Example 37, (S)-4-[(R)-6-(2-Chloro-4-fluoro-phenyl)-5-ethoxycarbonyl-2-(6-methyl-pyridin-2-yl)-3,6-dihydro-pyrimidin-4-ylmethyl]-morpholine-3-carboxylic acid] | 7 | > 593 | 
CCOC(=O)C1=C(CN2CC(F)(F)C[C@H]2C(=O)O)NC(c2nc(C(F)(F)F)cn2C)=N[C@H]1c1ccc(F)cc1Cl [Example 40, (R)-6-((S)-2-Carboxy-4,4-difluoro-pyrrolidin-1-ylmethyl)-4-(2-chloro-4-fluoro-phenyl)-2-(1-methyl-4-trifluoromethyl-1H-imidazol-2-yl)-1,4-dihydro-pyrimidine-5-carboxylic acid ethyl ester] | 8.45 | 409 (≈ 689 µM) | 
COC(=O)C1=C(CN2CC(F)(F)C[C@H]2C(=O)O)NC(c2nc(SC)cs2)=N[C@H]1c1ccc(F)cc1Cl [Example 62, (2S)-1-[[(4R)-4-(2-Chloro-4-fluorophenyl)-5-methoxycarbonyl-2-(4-methylsulfanyl-1,3-thiazol-2-yl)-1,4-dihydropyrimidin-6-yl]methyl]-4,4-difluoropyrrolidine-2-carboxylic acid] | 9.06 |  | 0.014
CCOC(=O)C1=C(CN2CC(F)(F)C[C@H]2C(=O)O)NC(c2nccs2)=N[C@H]1c1cccc(F)c1Br [Example 67, (R)-4-(2-Bromo-3-fluoro-phenyl)-6-((S)-2-carboxy-4,4-difluoro-pyrrolidin-1-ylmethyl)-2-thiazol-2-yl-1,4-dihydro-pyrimidine-5-carboxylic acid ethyl ester] | 6.42 | 590 (≈ 1030 µM) | 
COC(=O)C1=C(CN2CC(F)(F)C[C@H]2C(=O)O)NC(c2nccs2)=N[C@H]1c1ccccc1Br [Example 72, (R)-4-(2-Bromo-phenyl)-6-((S)-2-carboxy-4,4-difluoro-pyrrolidin-1-ylmethyl)-2-thiazol-2-yl-1,4-dihydro-pyrimidine-5-carboxylic acid methyl ester] | 5.16 | > 670 | 
COC(=O)C1=C(CN2CC(F)(F)C[C@H]2C(=O)O)NC(c2nccs2)=N[C@H]1c1ccc(Cl)cc1F [Example 76, (R)-6-((S)-2-Carboxy-4,4-difluoro-pyrrolidin-1-ylmethyl)-4-(4-chloro-2-fluoro-phenyl)-2-thiazol-2-yl-1,4-dihydro-pyrimidine-5-carboxylic acid methyl ester] | 1.72 | > 630 | 
COC(=O)C1=C(CN2CSCCC2C(=O)O)NC(c2nccs2)=N[C@H]1c1ccc(F)cc1Cl (stereo partly drawn) [Example 86, 3-[[(4R)-4-(2-Chloro-4-fluoro-phenyl)-5-methoxycarbonyl-2-thiazol-2-yl-1,4-dihydropyrimidin-6-yl]methyl]-1,3-thiazinane-4-carboxylic acid] | 6.8 | > 596 | 
COC(=O)C1=C(CN2CCOC[C@H]2C(=O)O)NC(c2nc(C(F)F)cs2)=N[C@H]1c1ccc(F)cc1Cl [Example 88, (3S)-4-[[(4R)-4-(2-Chloro-4-fluoro-phenyl)-2-[4-(difluoromethyl)thiazol-2-yl]-5-methoxycarbonyl-1,4-dihydropyrimidin-6-yl]methyl]morpholine-3-carboxylic acid] | 6.46 | > 665 | 
COC(=O)C1=C(CN2CC(F)(F)C(C)(C)[C@H]2C(=O)O)NC(c2nccs2)=N[C@H]1c1ccc(F)cc1Cl [Example 89, (R)-6-((S)-2-Carboxy-4,4-difluoro-3,3-dimethyl-pyrrolidin-1-ylmethyl)-4-(2-chloro-4-fluoro-phenyl)-2-thiazol-2-yl-1,4-dihydro-pyrimidine-5-carboxylic acid methyl ester] | 6.13 | > 525 | 
COC(=O)C1=C(CN2CCSC(C)(C)[C@H]2C(=O)O)NC(c2nccs2)=N[C@H]1c1ccc(F)cc1Cl [Example 90, (3R)-4-[[(4R)-4-(2-Chloro-4-fluoro-phenyl)-5-methoxycarbonyl-2-thiazol-2-yl-1,4-dihydropyrimidin-6-yl]methyl]-2,2-dimethyl-thiomorpholine-3-carboxylic acid] | 5.52 | > 610 | 
